This is an account of results in patent publication EP0906078B1, “TOPICAL USE OF TEMPOL IN THE PREVENTION OF PHOTOAGING” (Bernstein, Eric F., priority 1996, dated 1997).

Structures are written as SMILES. Values joined by “and” are separate entries in the source; they are usually repeats but may differ in a detail not shown here. Equal values may be shown once.

Data set [1] deals with human elastin promoter. Kind of data set: UVA/8-MOP (PUVA)-induced promoter activation (CAT activity) in fibroblast cultures from transgenic mice. In kind it is cell-based. As for the experimental part:
Because a response to UVA alone in vitro is not measurable and the in vivo response is relatively small, 8-methoxypsoralen (8-MOP) was added to the system to enhance the promoter response to UVA.
In these experiments, control cells received no UVA or 8-MOP. UVA controls received either 0.5, 0.75 or 1.0 J/cm^2 of UVA without prior incubation with 8-MOP. 8-MOP controls received 1 µg/ml of 8-MOP but no UVA. Tempol controls received 100 mM Tempol and no UVA or 8-MOP. PUVA-treated cells were preincubated with 1.0 µg/ml of 8-MOP in PBS and then exposed to 0.5, 0.75 or 1.0 J/cm^2. Tempol treated cells were pretreated with 100 mM Tempol 12.5 minutes prior to UVA exposure. 8-MOP was also added to these cells at the same time as the Tempol.
The addition of Tempol to the cultures reduced the PUVA-induced increase in CAT activity to 1.5-, 1.2- and 2.0-fold that of controls, respectively, thus almost completely eliminating the PUVA-induced increase in CAT activity.
Fibroblast cultures were established from the skin of transgenic mice by explanting tissue specimens onto plastic tissue culture dishes and allowing cells to migrate to the surrounding area. The primary cultures were maintained in Dulbecco's modified Eagle's medium supplemented with 10% fetal calf serum, 2 mM L-glutamine and antibiotics, at 37°C. The primary cell cultures were passaged by trypsinization, and the subcultures in passages three or four were utilized for UVB treatment. After UV exposure, the cells were incubated in tissue culture medium for 24 hours, and then harvested for determination of CAT activity.
To measure the expression of the human elastin promoter/CAT reporter gene construct in the skin of transgenic mice and in fibroblast cultures established from these animals, CAT activity was determined. For extraction of the CAT from skin, the specimens were homogenized in 0.25 Tris-HCl, pH 7.5, using a tissue homogenizer (Brinkmann Instruments, Inc. Westbury, NY). The homogenates were centrifuged at 10,000 X g for 15 minutes at 4°C and the protein concentration in the supernatant determined by a commercial protein assay kit (Bio-Rad Laboratories, Richmond, CA). Aliquots of the supernatant containing 100 µg of protein were used for assay of CAT activity by incubation with [^14C] chloramphenicol in accordance with well-known procedures. The acetylated and non-acetylated forms of radioactive chloramphenicol were separated by thin-layer chromatography and CAT activity was determined by the radioactivity in the acetylated forms as a percent of the total radioactivity in each sample.
Irradiation with UVA was performed using a closely spaced array of seven Sylvania FR40T12 PUVA lamps filtered through window glass of 2 mm thickness to remove wavelengths below 320 nm. The energy output at 38 cm from the array was measured with a Solar Light Model 3D UVA and UVB detector (Solar Light Company, Philadelphia, PA). The output of the lamps filtered through the window glass was 2.02 mW/cm^2, with no detectable UVB.

Data set [2] is described as follows: Absorption spectrum. In kind it is physicochemical.
For data set [3] the following is noted: in vivo; cited from earlier work.
For data set [4], the system named is human elastin promoter. The data set is described as follows: UVB-induced promoter activation (CAT activity) in fibroblast cultures from transgenic mice.
Data set [5] relates to human elastin promoter. The data set is described as follows: Transgenic mouse model of photoaging: human elastin promoter/CAT reporter activity in skin after UVB. The note with it: in vivo.

Take `COc1c2occc2cc2ccc(=O)oc12` [8-MOP, 8-methoxypsoralen, reference compound]: the CAT activity in data set [1] (1 µg/ml 8-MOP and 0.5 J/cm^2 UVA, no Tempol, relative to controls) is listed as 2.7 fold; in data set [1] (1 µg/ml 8-MOP and 0.75 J/cm^2 UVA, no Tempol, relative to controls), 9.0 fold; in data set [1] (1 µg/ml 8-MOP and 1.0 J/cm^2 UVA, no Tempol, relative to controls), 21.4 fold; in data set [1] (8-MOP alone (1 µg/ml), no UVA), “failed to produce significant CAT activity”.
Regarding `CC1(C)CC(O)CC(C)(C)N1[O]` [Tempol, 4-hydroxy-2,2,6,6-tetramethyl-piperidinyloxy, free radical], in data set [1], the CAT activity is 1.5 fold and 1.2 fold and 2.0 fold; the “protection against the PUVA-induced increases in CAT activity” value was “failed to afford protection”. In data set [2], the “absorption in the UVA range” value is “very little absorption”. Besides, in data set [3], the “detection in the blood following application” value was “undetectable”. Besides, in data set [4], the “% Protection from UVB” value is 41 p<0.01% and 74 p<0.001% and 69 p<0.001% and 42 p<0.001%; the “further reduction of CAT activity by scavenging properties” value is listed as 38%; the “reduction in CAT activity from cells treated with UVB alone” value is given as ~6 fold. In data set [5], the CAT activity was 1.7 fold and 3.3 fold.
